Assay results: BigSolDB 2.1

CC(=O)Nc1cccc(N)c1
solubility (mole fraction)
Conditions | 278.15 K | 283.15 K | 288.15 K | 293.15 K | 298.15 K | 303.15 K | 308.15 K | 313.15 K | 318.15 K | 323.15 K
in DMF | 0.029 | 0.043 | 0.061 | 0.088 | 0.124 | 0.166 | 0.22 | 0.285 | 0.358 | 0.44
in THF | 0.108 | 0.146 | 0.194 | 0.256 | 0.328 | 0.404 | 0.487 | 0.568 | 0.653 | 0.729
in acetone | 0.05 | 0.063 | 0.081 | 0.101 | 0.125 | 0.153 | 0.186 | 0.225 | 0.27 | 0.319
in acetonitrile | 0.0283 | 0.0322 | 0.0382 | 0.0453 | 0.0535 | 0.0644 | 0.0752 | 0.0908 | 0.108 | 0.128
in ethyl acetate | 0.033 | 0.038 | 0.043 | 0.049 | 0.055 | 0.063 | 0.074 | 0.085 | 0.099 | 0.114
in isopropanol | 0.021 | 0.031 | 0.048 | 0.064 | 0.084 | 0.108 | 0.138 | 0.174 | 0.218 | 0.266
in methanol | 0.049 | 0.074 | 0.105 | 0.148 | 0.207 | 0.274 | 0.351 | 0.44 | 0.53 | 0.613
in water | 0.025 | 0.039 | 0.06 | 0.091 | 0.133 | 0.19 | 0.262 | 0.347 | 0.439 | 0.541
